Results on 13 molecules are retold here after patent US9771351B2, “Wnt signaling inhibitor” (KYOWA HAKKO KIRIN CO., LTD., priority 2013, dated 2017).

The subject of experiment [1] is T-cell factor (TCF)-luciferase reporter using Wnt pathway as index. The experiment is described as follows: Inhibitory activity against TCF-luciferase reporter using Wnt pathway as index (DLD-1/TCF-Luc cells). The experiment is classed as cell-based, human. As to conditions: for inhibition at 1 µM: Homo sapiens, read-out: Inhibition ratio (%) at 1 μmol/L. The procedure: Test Example 1: Inhibitory Activity Against T-Cell Factor (TCF)-Luciferase Reporter Using Wnt Pathway as Index
The inhibitory activity of test compounds against Wnt pathway was evaluated by the following method.
A human colorectal adenocarcinoma cell line DLD-1 (Japanese Collection of Research Bioresources) was cultured in RPMI-1640 medium (Gibco/Life Technologies, Inc.) containing 10% fetal bovine serum (Gibco/Life Technologies, Inc.), 10 mmol/L of a 4-(2-hydroxyethyl)-1-piperazineethanesulfonic acid (HEPES) buffer solution (Gibco/Life Technologies, Inc.), 1 mmol/L of a sodium pyruvate solution (Gibco/Life Technologies, Inc.), 4.5 g/L of a D-(+)-glucose solution (Sigma-Aldrich, Inc.), 100 units/mL penicillin (Gibco/Life Technologies, Inc.) and 100 μg/mL of streptomycin (Gibco/Life Technologies, Inc.) under the conditions of 37° C. and 5% carbon dioxide gas. The DLD-1 cells were seeded in a 10 cm dish, and 20 μg of a luciferase gene plasmid pGL4.27 having a TCF responsive sequence inserted therein was transfected into the cells using 10 μL of Attractene (Qiagen, Inc.) according to the protocol attached to the product. A stably expressing cell line (DLD-1/TCF-Luc) was selected using […] of hygromycin B (Wako Pure Chemical Industries Ltd.). The DLD-1/TCF-Luc cells were detached with trypsin and seeded in a 384-well plate, and a test compound was added at different concentrations. After 18 hours, the luciferase activity was measured using Steady-Glo™ Luciferase Assay System (Promega, Inc.).
The inhibition ratio was obtained according to the following formula 1. The inhibition ratio (%) of the compound of the present invention at 1 μmol/L against the TCF-luciferase reporter using the Wnt pathway as an index is shown in Table 6. [Math. 1] Inhibition ratio (%)=100−{(luciferase activity when test compound was added)−(luciferase activity of blank)}/{(luciferase activity of control)−(luciferase activity of blank)}×100 Formula 1
Background: A reporter such as luciferase makes a cellular process visible.

A further experiment concerns the target T1, tankyrase-2 (Homo sapiens, UniProt Q9H2K2).
T1 construct: purchased BPS Bioscience, Inc. 80566
T1 sequence (Q9H2K2 1-1166): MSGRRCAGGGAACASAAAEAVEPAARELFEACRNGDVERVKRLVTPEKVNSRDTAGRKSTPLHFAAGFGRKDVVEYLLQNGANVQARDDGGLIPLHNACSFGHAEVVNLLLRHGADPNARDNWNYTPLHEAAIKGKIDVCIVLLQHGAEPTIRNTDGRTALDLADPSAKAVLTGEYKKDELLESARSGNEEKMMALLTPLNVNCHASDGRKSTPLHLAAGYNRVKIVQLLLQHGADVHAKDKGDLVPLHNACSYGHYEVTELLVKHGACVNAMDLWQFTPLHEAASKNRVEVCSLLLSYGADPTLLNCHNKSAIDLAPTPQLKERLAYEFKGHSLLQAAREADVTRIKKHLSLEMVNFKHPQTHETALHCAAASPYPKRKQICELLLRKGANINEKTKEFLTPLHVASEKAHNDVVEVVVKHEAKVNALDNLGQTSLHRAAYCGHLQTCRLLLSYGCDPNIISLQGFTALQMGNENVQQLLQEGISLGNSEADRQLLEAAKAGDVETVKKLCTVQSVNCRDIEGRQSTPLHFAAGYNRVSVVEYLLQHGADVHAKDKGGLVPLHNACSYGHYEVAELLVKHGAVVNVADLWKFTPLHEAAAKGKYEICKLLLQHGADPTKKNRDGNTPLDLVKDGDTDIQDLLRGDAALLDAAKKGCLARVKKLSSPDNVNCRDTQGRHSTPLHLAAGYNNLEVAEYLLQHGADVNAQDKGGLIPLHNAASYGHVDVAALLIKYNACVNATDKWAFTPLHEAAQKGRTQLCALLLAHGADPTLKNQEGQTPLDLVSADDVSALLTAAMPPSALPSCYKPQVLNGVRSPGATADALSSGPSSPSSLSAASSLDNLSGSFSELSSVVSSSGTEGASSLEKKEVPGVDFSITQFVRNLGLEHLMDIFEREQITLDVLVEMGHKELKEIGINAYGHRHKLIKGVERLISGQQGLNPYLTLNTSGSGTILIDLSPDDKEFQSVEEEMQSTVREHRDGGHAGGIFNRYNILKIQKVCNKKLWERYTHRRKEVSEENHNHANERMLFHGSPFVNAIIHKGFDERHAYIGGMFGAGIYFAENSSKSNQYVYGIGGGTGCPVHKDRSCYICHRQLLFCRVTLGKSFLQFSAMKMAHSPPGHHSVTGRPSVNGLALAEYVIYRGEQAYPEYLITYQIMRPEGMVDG
The experiment is described as follows: Tankyrase-2 enzyme inhibition test (Tankyrase-2 Chemiluminescent Assay Kit). As to conditions: autoribosylation of GST-tankyrase-2 fusion protein, chemiluminescence. The experiment is classed as biochemical. As to the method: Test Example 2: Tankyrase-2 Enzyme Inhibition Test
The enzyme activity of tankyrase-2 was evaluated using Tankyrase-2 Chemiluminescent Assay Kit (BPS Bioscience, Inc., Catalog No. 80566). The Tankyrase-2 Chemiluminescent Assay Kit is a kit for evaluating the enzyme activity of tankyrase-2 using autoribosylation of glutathione-S-transferase (GST)-tankyrase-2 fusion protein as an index. All the experimental materials except for PBS (PBST) buffer containing phosphate-buffered saline (PBS) and 0.05% Tween 20 are all included in the kit. The GST-tankyrase-2 enzyme diluted with 50 μL of 1× tankyrase buffer was added to the wells of a 96-well plate coated with glutathione. After the plate was left to stand overnight at 4° C., the plate was washed 3 times with the PBST buffer. 150 μL of blocking buffer was added thereto, and the plate was left to stand at room temperature for 30 minutes to block the wells. The plate was washed 3 times with the PBST buffer. Before the ribosylation reaction, an assay mixture containing a biotinylated substrate and a test compound diluted with 1× tankyrase buffer were mixed, whereby a reaction mixture was prepared. In order to start the ribosylation reaction, 50 μL of the reaction mixture was added to the wells. In a blank well, 1× tankyrase buffer was added in place of the reaction mixture containing a biotinylated substrate. The plate was left to stand at 30° C. for 1 hour. After the reaction, the plate was washed 3 times with the PBST buffer. Streptavidin-horseradish peroxidase (HRP) was diluted to 50-fold with the blocking buffer. The diluted streptavidin-HRP was added to the wells, and the plate was left to stand at room temperature for 30 minutes. The plate was washed 3 times with the PBST buffer. Immediately before use, 50 μL of the HRP chemiluminescent substrate A and 50 μL of the HRP chemiluminescent substrate B were mixed and 100 μL of the resulting mixture was added to the wells. The chemiluminescence was measured using a chemiluminescence measuring apparatus. The inhibition ratio was obtained according to the following formula 2. [Math. 2] Inhibition ratio (%)=100−{(chemiluminescence intensity when test compound was added)−(chemiluminescence intensity of blank)}/{(chemiluminescence intensity of control)−(chemiluminescence intensity of blank)}×100 Formula 2

[2] abbreviates: 1 μmol/L, DLD-1/TCF-Luc cells, luciferase activity after 18 hours.

Where two headings read alike, the source gives them in different places.

Consider `COc1cc2ncnc(N3CCC(CN4Cc5ccccc5N(Cc5ccccc5C(N)=O)C4=O)CC3)c2cc1OC` [Compound 1, 2-[(3-{[1-(6,7-Dimethoxyquinazolin-4-yl)piperidin-4-yl]methyl}-2-oxo-3,4-dihydroquinazolin-1(2H)-yl)methyl]benzamide], for which the inhibition at 1 µM in experiment [1] (setting [2]) is 88%. In addition, the “Inhibition ratio (%) at 1 μmol/L” value on tankyrase-2 is on record as 91%.

As for `N#Cc1cccc(N2C(=O)N(CC3CCN(c4ncnc5c[n+]([O-])ccc45)CC3)Cc3ccccc32)c1` [Compound 29, 4-(4-{[1-(3-Cyanophenyl)-2-oxo-1,2-dihydroquinazolin-3(4H)-yl]methyl}piperidin-1-yl)pyrido[3,4-d]pyrimidine-7-oxide], the inhibition at 1 µM in experiment [1] (DLD-1, 18 h) was determined as 74%. Further, the “Inhibition ratio (%) at 1 μmol/L” value on tankyrase-2 was found to be 87%.

As to `COc1cc2ncnc(N3CCC(O)(CN4Cc5ccccc5N(c5ccnc(C#N)c5)C4=O)CC3)c2cc1OC` [Compound 18, 4-(3-{[1-(6,7-Dimethoxyquinazolin-4-yl)-4-hydroxypiperidin-4-yl]methyl}-2-oxo-3,4-dihydroquinazolin-1(2H)-yl)picolinonitrile], in experiment [1] (setting [2]), the inhibition at 1 µM turned out to be 80%. The “Inhibition ratio (%) at 1 μmol/L” value at tankyrase-2 is recorded as 79%.

Consider `N#Cc1cc(N2C(=O)N(CC3CCN(c4nccn5ccnc45)CC3)Cc3ccccc32)ccn1` [Compound 30, 4-(3-{[1-(Imidazo[1,2-a]pyrazin-8-yl)piperidin-4-yl]methyl}-2-oxo-3,4-dihydroquinazolin-1(2H)-yl)picolinonitrile], for which, in experiment [1] (DLD-1, 18 h), the inhibition at 1 µM was 69%. In addition, the “Inhibition ratio (%) at 1 μmol/L” value at tankyrase-2 turned out to be 92%.

Consider `COc1cc2ncnc(N3CCC(CN4Cc5ccccc5N(c5ccc(F)c(C#N)c5)C4=O)CC3)c2cc1OC` [Compound 7, 5-(3-{[1-(6,7-Dimethoxyquinazolin-4-yl)piperidin-4-yl]methyl}-2-oxo-3,4-dihydroquinazolin-1(2H)-yl)-2-fluorobenzonitrile], for which the inhibition at 1 µM in experiment [1] (setting [2]) came out at 76%. Further, on tankyrase-2, the “Inhibition ratio (%) at 1 μmol/L” value came to 95%.

`COc1cc2ncnc(N3CCC(CN4Cc5ccccc5N(c5c[nH]c(=O)c(C#N)c5)C4=O)CC3)c2cc1OC` [Compound 12, 5-(3-{[1-(6,7-Dimethoxyquinazolin-4-yl)piperidin-4-yl]methyl}-2-oxo-3,4-dihydroquinazolin-1(2H)-yl)-2-oxo-1,2-dihydropyridine-3-carbonitrile]: the inhibition at 1 µM in experiment [1] (setting [2]) was determined as 80%. The “Inhibition ratio (%) at 1 μmol/L” value on tankyrase-2 is given as 88%.

As for `COc1cc2ncnc(N3CCC(CN4Cc5ccccc5N(C5CCOCC5)C4=O)CC3)c2cc1OC` [Compound 16, 3-{[1-(6,7-Dimethoxyquinazolin-4-yl)piperidin-4-yl]methyl}-1-(tetrahydro-2H-pyran-4-yl)-3,4-dihydroquinazolin-2(1H)-one], in experiment [1] (setting [2]), the inhibition at 1 µM stood at 63%. Also, at tankyrase-2, the “Inhibition ratio (%) at 1 μmol/L” value turned out to be 71%.

As for `COc1cc2ncnc(N3CCC(CN4Cc5ccccc5N(c5cccc(S(N)(=O)=O)c5)C4=O)CC3)c2cc1OC` [Compound 13, 3-(3-{[1-(6,7-Dimethoxyquinazolin-4-yl)piperidin-4-yl]methyl}-2-oxo-3,4-dihydroquinazolin-1(2H)-yl)benzenesulfonamide], the inhibition at 1 µM in experiment [1] (setting [2]) turned out to be 80%. In addition, the “Inhibition ratio (%) at 1 μmol/L” value at tankyrase-2 is recorded as 89%.

For the molecule `N#Cc1cc(N2C(=O)N(CC3CCN(c4nccc5nc[nH]c(=O)c45)CC3)Cc3ccccc32)ccn1` [Compound 34, 4-(2-Oxo-3-{[1-(4-oxo-3,4-dihydropyrido[4,3-d]pyrimidin-5-yl)piperidin-4-yl]methyl}-3,4-dihydroquinazolin-1(2H)-yl)picolinonitrile], the inhibition at 1 µM in experiment [1] (DLD-1, 18 h) was found to be 78%. Also, the “Inhibition ratio (%) at 1 μmol/L” value at tankyrase-2 was 87%.

On to `N#Cc1cc(N2C(=O)N(CC3CCN(c4c(C(N)=O)ccnc4F)CC3)Cc3ccccc32)ccn1` [Compound 40, 3-(4-{[1-(2-Cyanopyridin-4-yl)-2-oxo-1,2-dihydroquinazolin-3(4H)-yl]methyl}piperidin-1-yl)-2-fluoroisonicotinamide], for which the inhibition at 1 µM in experiment [1] (DLD-1, 18 h) came out at 78%. Moreover, the “Inhibition ratio (%) at 1 μmol/L” value at tankyrase-2 is on record as 93%.

`N#Cc1cc(N2C(=O)N(CC3CCN(c4cccc5n[nH]c(=O)n45)CC3)Cc3ccccc32)ccn1` [Compound 38, 4-(2-Oxo-3-{[1-(3-oxo-2,3-dihydro-[1,2,4]triazolo[4,3-a]pyridin-5-yl)piperidin-4-yl]methyl}-3,4-dihydroquinazolin-1(2H)-yl)picolinonitrile]: the inhibition at 1 µM in experiment [1] (DLD-1, 18 h) turned out to be 89%. The “Inhibition ratio (%) at 1 μmol/L” value on tankyrase-2 stood at 94%.

`COc1cc2ncnc(N3CCC(CN4Cc5ccccc5N(c5ccnc(C#N)n5)C4=O)CC3)c2cc1OC` [Compound 11, 4-(3-{[1-(6,7-Dimethoxyquinazolin-4-yl)piperidin-4-yl]methyl}-2-oxo-3,4-dihydroquinazolin-1(2H)-yl)pyrimidine-2-carbonitrile]: in experiment [1] (setting [2]), the inhibition at 1 µM was determined as 87%.

For `N#Cc1cc(N2C(=O)N(CC3CCN(c4ncnc5cnc(C(N)=O)cc45)CC3)Cc3ccccc32)ccc1F` [Compound 45, 4-(4-{[1-(3-Cyano-4-fluorophenyl)-2-oxo-1,2-dihydroquinazolin-3(4H)-yl]methyl}piperidin-1-yl)pyrido[3,4-d]pyrimidine-6-carboxamido], in experiment [1] (setting [2]), the “Inhibition ratio (%) at 1 μmol/L” value is 86%.
